Experimental data taken from US20080026996A1, “Selective Vpac2 Receptor Reptide Agonists” (ELI LILLY AND COMPANY, priority 2004, published 2008).
Where no end group is shown, it is not given here. [ ]: non-standard residue; d: D form. The star is where a group is joined. Orn = NCCC[C@H](N)C(=O)O; Hexanoyl = CCCCCC(=O)*; Aib = CC(C)(N)C(=O)O

What was measured:
human VPAC2 [1] = target: T1, human VPAC2 (Homo sapiens, UniProt P41587); assay: Alpha screen cAMP in vitro potency, human VPAC2 receptor; format: cell-based; conditions: cAMP generation; single result from two analyses performed in a single run; read-out: Human VPAC2 Receptor: Alpha Screen EC50
T1 construct: expressed in transfected cells
T1 sequence (P41587 24-438): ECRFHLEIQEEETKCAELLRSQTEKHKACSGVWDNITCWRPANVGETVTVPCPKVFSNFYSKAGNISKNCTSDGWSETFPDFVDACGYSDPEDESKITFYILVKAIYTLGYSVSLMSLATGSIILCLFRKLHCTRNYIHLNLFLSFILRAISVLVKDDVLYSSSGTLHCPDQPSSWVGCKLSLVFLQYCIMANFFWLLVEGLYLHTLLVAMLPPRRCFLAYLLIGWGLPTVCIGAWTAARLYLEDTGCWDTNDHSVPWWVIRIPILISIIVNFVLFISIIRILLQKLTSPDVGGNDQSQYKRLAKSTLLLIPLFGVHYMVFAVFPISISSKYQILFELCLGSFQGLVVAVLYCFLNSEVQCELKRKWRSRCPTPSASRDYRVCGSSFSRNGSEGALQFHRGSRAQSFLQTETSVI
Summary of the method: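 Stimulated cAMP accumulation is read by AlphaScreen after 60 min exposure of 50,000 non-enzymatically harvested cells to compound, followed by lysis with donor beads.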

human VPAC2 [2] = target: T1, human VPAC2; assay: Filter binding assay, membranes of stable VPAC2 cell line, 125I-labeled VIP tracer (Table 2); conditions: read-out: Human VPAC2 Receptor Binding
Summary of the method: (§1)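 Membranes 2.5 μg/well; tracer ~40000 cpm; buffer 25 mM HEPES pH 7.4, 0.5% protease-free BSA; 1 h incubation, shaking. Glass-fibre filtration (0.5% polyethyleneamine presoak, 0.2% BSA block), 3× HEPES wash, dry 1 h at 60° C, scintillation count.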

[3] = Rat serum stability studies (remaining active peptide by DiscoveRx cAMP on CHO-VPAC2 cells); format: in vitro ADME
Summary of the method: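 EC50 from a DiscoveRx cAMP read-out on CHO-VPAC2 cells indexes how much peptide stays active after 18 h in rat serum at 37° C without aprotinin, against an aprotinin-protected 4° C aliquot.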

human VPAC1 = target: T2, human VPAC1 (Homo sapiens, UniProt P32241); assay: Filter binding assay, membranes of cells transiently transfected with human VPAC1, 125I-labeled VIP tracer (Table 2); parameters: expressed in transfected cells; conditions: read-out: Human VPAC1 Receptor Binding
T2 sequence (P32241 31-457): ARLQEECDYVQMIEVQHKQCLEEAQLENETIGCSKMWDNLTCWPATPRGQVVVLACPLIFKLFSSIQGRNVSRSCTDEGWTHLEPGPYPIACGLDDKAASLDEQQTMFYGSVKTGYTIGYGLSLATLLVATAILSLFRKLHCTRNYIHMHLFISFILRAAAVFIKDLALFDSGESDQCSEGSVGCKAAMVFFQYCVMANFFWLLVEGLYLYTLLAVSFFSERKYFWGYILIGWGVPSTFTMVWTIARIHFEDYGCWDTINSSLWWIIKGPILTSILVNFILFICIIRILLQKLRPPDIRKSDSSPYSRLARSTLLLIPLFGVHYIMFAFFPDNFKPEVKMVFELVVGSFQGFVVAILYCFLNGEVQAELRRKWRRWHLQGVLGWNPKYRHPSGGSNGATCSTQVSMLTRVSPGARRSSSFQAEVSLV
Summary of the method: as §1

human PAC1 = target: T3, human PAC1 (Homo sapiens, UniProt P41586); assay: Filter binding assay, membranes of cells transiently transfected with human PAC1, 125I-labeled PACAP-27 tracer (Table 2); parameters: expressed in transfected cells; conditions: read-out: Human PAC1 Receptor Binding
T3 sequence (P41586 21-468): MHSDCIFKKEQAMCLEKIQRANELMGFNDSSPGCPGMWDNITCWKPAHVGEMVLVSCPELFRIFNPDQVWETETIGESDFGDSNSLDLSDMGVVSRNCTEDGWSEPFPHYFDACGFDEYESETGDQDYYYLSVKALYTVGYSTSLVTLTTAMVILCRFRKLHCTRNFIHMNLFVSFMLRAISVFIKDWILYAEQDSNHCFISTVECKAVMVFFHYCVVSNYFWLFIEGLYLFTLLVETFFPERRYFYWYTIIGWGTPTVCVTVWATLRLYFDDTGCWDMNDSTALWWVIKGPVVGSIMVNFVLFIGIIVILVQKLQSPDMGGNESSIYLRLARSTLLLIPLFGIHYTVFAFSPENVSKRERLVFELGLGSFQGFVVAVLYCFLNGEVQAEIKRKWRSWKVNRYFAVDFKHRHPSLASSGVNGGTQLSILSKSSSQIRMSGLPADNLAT
Summary of the method: as §1

rat VPAC2 receptor = target: T4, rat VPAC2 receptor (Rattus norvegicus, UniProt P35000); assay: DiscoveRx in vitro potency, CHO-PO cells transiently transfected with rat VPAC 2 receptor DNA; format: cell-based; parameters: expressed in transfected cells; host or cells: CHO-PO, transient
T4 sequence (P35000 23-437): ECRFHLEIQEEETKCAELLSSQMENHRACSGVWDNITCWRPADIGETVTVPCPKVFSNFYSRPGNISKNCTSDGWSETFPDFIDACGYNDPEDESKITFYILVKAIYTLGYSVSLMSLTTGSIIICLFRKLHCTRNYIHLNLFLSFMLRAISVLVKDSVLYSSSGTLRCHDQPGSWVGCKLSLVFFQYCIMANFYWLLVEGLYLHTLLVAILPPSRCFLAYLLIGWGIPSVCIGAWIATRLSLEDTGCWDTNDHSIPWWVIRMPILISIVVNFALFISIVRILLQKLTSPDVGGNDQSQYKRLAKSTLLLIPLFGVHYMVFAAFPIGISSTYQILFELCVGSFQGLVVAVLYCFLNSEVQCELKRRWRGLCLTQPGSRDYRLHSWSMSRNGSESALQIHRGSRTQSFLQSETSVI
Method: Also, the cells are washed twice. […] The stimuli are present for 30 minutes. Then, the assay buffer is gently removed.

| Compound | EC50 (human VPAC2 [1]) | IC50 (human VPAC2 [2]) | Rat Serum Stability (estimated purity in % after 18 hours) [3] | IC50 (human VPAC1) | IC50 (human PAC1) | EC50 (rat VPAC2 receptor) | Rat Serum Stability (Estimated purity in % after 72 hours) [3] |
| --- | --- | --- | --- | --- | --- | --- | --- |
| Hexanoyl-HSDAVFTDNYTRLRKQVAAQKYLQSIKNKRYGGPSSGAPPPS [Agonist P150] | 0.18 nM | 0.25 nM | 0.21% | 444 nM | 916 nM | 0.1 nM | – |
| CCCCCC(=O)N[C@@H](Cc1c[nH]cn1)C(=O)N[C@@H](CO)C(=O)N[C@@H](CC(=O)O)C(=O)N[C@@H](C)C(=O)N[C@H](C(=O)N[C@@H](Cc1ccccc1)C(=O)N[C@H](C(=O)N[C@@H](CC(=O)O)C(=O)N[C@@H](CC(N)=O)C(=O)N[C@@H](Cc1ccc(O)cc1)C(=O)N[C@H](C(=O)N[C@@H](CCCN)C(=O)N[C@@H](CC(C)C)C(=O)N[C@@H](CCCNC(=N)N)C(=O)NC(C)(C)C(=O)N[C@@H](CCC(N)=O)C(=O)N[C@H](C(=O)N[C@@H](C)C(=O)N[C@@H](C)C(=O)NC(C)(C)C(=O)N[C@@H](CCCCN)C(=O)N[C@@H](Cc1ccc(O)cc1)C(=O)N[C@@H](CC(C)C)C(=O)N[C@@H](CCC(N)=O)C(=O)N[C@@H](CO)C(=O)N[C@H](C(=O)N[C@@H](CCCN)C(=O)N[C@@H](CC(N)=O)C(=O)N[C@@H](CCCN)C(=O)NCC(=O)NCC(=O)N1CCC[C@H]1C(=O)N[C@@H](CO)C(=O)N[C@@H](CO)C(=O)NCC(=O)N[C@@H](C)C(=O)N1CCC[C@H]1C(=O)N1CCC[C@H]1C(=O)N1CCC[C@H]1C(=O)N[C@@H](CO)C(=O)O)[C@@H](C)CC)C(C)C)[C@@H](C)O)[C@@H](C)O)C(C)C [Agonist P326] | 0.21 nM | 0.33 nM | 90.10% | > 3000 nM | > 25000 nM | 0.09 nM | 49.6% |
| CCCCCC(=O)N[C@@H](Cc1c[nH]cn1)C(=O)N[C@@H](CO)C(=O)N[C@@H](CC(=O)O)C(=O)N[C@@H](C)C(=O)N[C@H](C(=O)N[C@@H](Cc1ccccc1)C(=O)N[C@H](C(=O)N[C@@H](CC(=O)O)C(=O)N[C@@H](CC(N)=O)C(=O)N[C@@H](Cc1ccc(O)cc1)C(=O)N[C@H](C(=O)N[C@@H](CCCNC(=N)N)C(=O)N[C@@H](CC(C)C)C(=O)N[C@@H](CCCNC(=N)N)C(=O)NC(C)(C)C(=O)N[C@@H](CCC(N)=O)C(=O)N[C@H](C(=O)N[C@@H](C)C(=O)N[C@@H](C)C(=O)NC(C)(C)C(=O)N[C@@H](CCCCN)C(=O)N[C@@H](Cc1ccc(O)cc1)C(=O)N[C@@H](CC(C)C)C(=O)N[C@@H](CCC(N)=O)C(=O)N[C@@H](CO)C(=O)N[C@H](C(=O)N[C@@H](CCCN)C(=O)N[C@@H](CCCN)C(=O)NCC(=O)NCC(=O)N1CCC[C@H]1C(=O)N[C@@H](CO)C(=O)N[C@@H](CO)C(=O)NCC(=O)N[C@@H](C)C(=O)N1CCC[C@H]1C(=O)N1CCC[C@H]1C(=O)N1CCC[C@H]1C(=O)N[C@@H](CO)C(=O)O)[C@@H](C)CC)C(C)C)[C@@H](C)O)[C@@H](C)O)C(C)C [Agonist P352] | 0.14 nM | 0.6 nM | 45.09% | > 3000 nM | – | 0.09 nM | 2.2% |
| Hexanoyl-HSDAVFTDQYTRLR[Aib]QVAA[Aib]KYLQSIKQKRYGGPSSGAPPPS [Agonist P315] | 0.19 nM | 0.29 nM | 24.00% | > 3000 nM | – | 0.04 nM | – |
| Hexanoyl-HSDAVFTDNYT[Orn]LR[Aib]QVAA[Aib]KYLQSIKNKRYGGPSSGAPPPS [Agonist P344] | 0.13 nM | 0.25 nM | 50.19% | > 3000 nM | – | 0.06 nM | 43.0% |
| Hexanoyl-HSDAVFTDNYTRLR[Aib]QVAA[Aib][Orn]YLQSIKNKRYGGPSSGAPPPS [Agonist P342] | 0.21 nM | 0.35 nM | 25.96% | > 3000 nM | – | 0.06 nM | – |
| Hexanoyl-HSDAVFTDNYTR[Aib]R[Aib]QVAA[Aib]KYLQSIKNKRYGGPSSGAPPPS [Agonist P346] | 0.23 nM | 0.25 nM | 43.44% | > 3000 nM | – | 0.06 nM | 27.6% |
